Test system: OVCAR-8 complex spheroid, growth inhibition
Assay: Anticancer human tumor OVCAR-8 cell line growth inhibition [Asc];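 further: spheroids exposed to agents for 7 days before readout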;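 on viability, T/C: percent viability relative to DMSO vehicle wells taken as 100%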
Conditions: for IC50: curve of first compound; for viability, T/C: stronger effect = lower value
How it was run: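 Tumor cells were grown as multicellular spheroids with stromal HUVEC and mesenchymal stem cells and treated singly or in combination. Concentrations fell in half-log steps from the clinical Cmax, or from 10 microM where none was known.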

[1] = second compound 0.00316 µM, first compound 0.00316 µM
[2] = second compound 0.00316 µM, first compound 0.01 µM
[3] = second compound 0.00316 µM, first compound 0.0316 µM
[4] = second compound 0.00316 µM, first compound 0.1 µM
[5] = second compound 0.01 µM, first compound 0.00316 µM
[6] = second compound 0.01 µM, first compound 0.01 µM
[7] = second compound 0.01 µM, first compound 0.0316 µM
[8] = second compound 0.01 µM, first compound 0.1 µM
[9] = second compound 0.0316 µM, first compound 0.00316 µM
[10] = second compound 0.0316 µM, first compound 0.01 µM
[11] = second compound 0.0316 µM, first compound 0.0316 µM
[12] = second compound 0.0316 µM, first compound 0.1 µM
[13] = second compound 0.1 µM, first compound 0.00316 µM
[14] = second compound 0.1 µM, first compound 0.01 µM
[15] = second compound 0.1 µM, first compound 0.0316 µM
[16] = second compound 0.1 µM, first compound 0.1 µM
[17] = second compound 0.316 µM, first compound 0.00316 µM
[18] = second compound 0.316 µM, first compound 0.01 µM
[19] = second compound 0.316 µM, first compound 0.0316 µM
[20] = second compound 0.316 µM, first compound 0.1 µM
[21] = second compound 1 µM, first compound 0.00316 µM
[22] = second compound 1 µM, first compound 0.01 µM
[23] = second compound 1 µM, first compound 0.0316 µM
[24] = second compound 1 µM, first compound 0.1 µM

`COc1c(OCCCN2CCOCC2)ccc2c3n(c(=NC(=O)c4cnc(N)nc4)nc12)CCN3` + CNC(C)C(=O)NC1CN(S(=O)(=O)c2cccc(S(=O)(=O)N3CCC4CCC(C(=O)NC(c5ccccc5)c5ccccc5)N4C(=O)C(NC(=O)C(C)NC)C3)c2)CCC2CCC(C(=O)NC(c3ccccc3)c3ccccc3)N2C1=O showed an IC50 (second compound 0.00316 µM) greater than 1000 nM, an IC50 (second compound 0.01 µM) greater than 1000 nM and an IC50 (second compound 0.0316 µM) of 915 nM. For the same compound, the IC50 (second compound 0.1 µM) was 730 nM, the IC50 (second compound 0.316 µM) was 563 nM and the IC50 (second compound 1 µM) was 326 nM. It also gave a viability, T/C [1] of 110%, a viability, T/C [2] of 94.7% and a viability, T/C [3] of 131%. For the same compound, the viability, T/C [4] was 137%, the viability, T/C (second compound 0.00316 µM, first compound 0.316 µM) was 126% and the viability, T/C (second compound 0.00316 µM, first compound 1 µM) was 73.1%. The viability, T/C [5] was 99.5%, the viability, T/C [6] was 105% and the viability, T/C [7] was 113%. It also gave a viability, T/C [8] of 149%, a viability, T/C (second compound 0.01 µM, first compound 0.316 µM) of 129% and a viability, T/C (second compound 0.01 µM, first compound 1 µM) of 64.4%. For the same compound, the viability, T/C [9] was 99.6%, the viability, T/C [10] was 92.7% and the viability, T/C [11] was 107%. It also gave a viability, T/C [12] of 133%, a viability, T/C (second compound 0.0316 µM, first compound 0.316 µM) of 135% and a viability, T/C (second compound 0.0316 µM, first compound 1 µM) of 44.7%. For the same compound, the viability, T/C [13] was 82.5%, the viability, T/C [14] was 92.9% and the viability, T/C [15] was 101%. It also gave a viability, T/C [16] of 115%, a viability, T/C (second compound 0.1 µM, first compound 0.316 µM) of 105% and a viability, T/C (second compound 0.1 µM, first compound 1 µM) of 31.6%. It also gave a viability, T/C [17] of 87.5%, a viability, T/C [18] of 77.3% and a viability, T/C [19] of 98.7%. The viability, T/C [20] was 113%, the viability, T/C (second compound 0.316 µM, first compound 0.316 µM) was 84.1% and the viability, T/C (second compound 0.316 µM, first compound 1 µM) was 16%. It also gave a viability, T/C [21] of 92.9%, a viability, T/C [22] of 90.4% and a viability, T/C [23] of 111%. The viability, T/C [24] was 92.5%, the viability, T/C (second compound 1 µM, first compound 0.316 µM) was 51.3% and the viability, T/C (second compound 1 µM, first compound 1 µM) was 4.42%.

`NC1CCC(NC2CC2c2ccccc2)CC1` (centres undefined) + CNC(C)C(=O)NC1CN(S(=O)(=O)c2cccc(S(=O)(=O)N3CCC4CCC(C(=O)NC(c5ccccc5)c5ccccc5)N4C(=O)C(NC(=O)C(C)NC)C3)c2)CCC2CCC(C(=O)NC(c3ccccc3)c3ccccc3)N2C1=O gave an IC50 (second compound 0.00316 µM) greater than 100 nM, an IC50 (second compound 0.01 µM) greater than 100 nM and an IC50 (second compound 0.0316 µM) greater than 100 nM. The IC50 (second compound 0.1 µM) was greater than 100 nM, the IC50 (second compound 0.316 µM) was greater than 100 nM and the IC50 (second compound 1 µM) was greater than 100 nM. The viability, T/C (second compound 0.00316 µM, first compound 0.000316 µM) was 117%, the viability, T/C (second compound 0.00316 µM, first compound 0.001 µM) was 106% and the viability, T/C [1] was 102%. It also gave a viability, T/C [2] of 90.9%, a viability, T/C [3] of 99.4% and a viability, T/C [4] of 87.1%. It also gave a viability, T/C (second compound 0.01 µM, first compound 0.000316 µM) of 118%, a viability, T/C (second compound 0.01 µM, first compound 0.001 µM) of 87.7% and a viability, T/C [5] of 119%. For the same compound, the viability, T/C [6] was 91.5%, the viability, T/C [7] was 86.7% and the viability, T/C [8] was 91.7%. For the same compound, the viability, T/C (second compound 0.0316 µM, first compound 0.000316 µM) was 93.9%, the viability, T/C (second compound 0.0316 µM, first compound 0.001 µM) was 112% and the viability, T/C [9] was 96.3%. It also gave a viability, T/C [10] of 98.5%, a viability, T/C [11] of 101% and a viability, T/C [12] of 107%. For the same compound, the viability, T/C (second compound 0.1 µM, first compound 0.000316 µM) was 79.2%, the viability, T/C (second compound 0.1 µM, first compound 0.001 µM) was 79.2% and the viability, T/C [13] was 93.3%. It also gave a viability, T/C [14] of 93%, a viability, T/C [15] of 88.4% and a viability, T/C [16] of 104%. It also gave a viability, T/C (second compound 0.316 µM, first compound 0.000316 µM) of 78.8%, a viability, T/C (second compound 0.316 µM, first compound 0.001 µM) of 86.6% and a viability, T/C [17] of 88.2%. For the same compound, the viability, T/C [18] was 80%, the viability, T/C [19] was 82.8% and the viability, T/C [20] was 87.2%. The viability, T/C (second compound 1 µM, first compound 0.000316 µM) was 77.9%, the viability, T/C (second compound 1 µM, first compound 0.001 µM) was 79.3% and the viability, T/C [21] was 94%. It also gave a viability, T/C [22] of 74.7%, a viability, T/C [23] of 85.3% and a viability, T/C [24] of 85.7%.
